From patent publication US6303617A, “Serotonin-like 9-substituted hypoxanthine and methods of use” (Neotherapeutics, Inc., priority 1999, dated 2001)

What was measured:
total serum cholesterol [1] = experiment: Total serum cholesterol in Swiss Webster mice fed a high cholesterol or normal diet; format: in vivo; conditions: dosed on days 6 and 7 of diet, serum on day 8; FIG. 5
Description: (§1) On days 6 and 7 the mice were given the compound N-(2-(5-hydroxyindol-3-yl)ethyl)-3-(6-oxohydropurin-9-yl)propanamide (AIT-202), a positive control (bezafibrate), or a vehicle. The animals were fasted overnight and on day 8 trunk blood was collected. Total cholesterol and HDL cholesterol were measured in serum.

HDL cholesterol = HDL cholesterol in serum of Swiss Webster mice fed a high cholesterol or normal diet; format: in vivo; conditions: dosed on days 6 and 7 of diet, serum on day 8; FIG. 5
Description: as §1

monoamine oxidase A/B = experiment: Inhibition of monoamine oxidase A/B catalytic activity (mouse brain mitochondria, tyramine substrate); format: biochemical
Description: Experiments were carried out to determine whether the serotonin analogue N-(2-(5-hydroxyindol-3-yl)ethyl)-3-(6-oxohydropurin-9-yl)propanamide (AIT-202) inhibited monoamine oxidases A and B. These experiments were performed as follows:
Mice (3-5 mice) were sacrificed by cervical dislocation. The brains were isolated and placed immediately in 10 ml cold isolation medium (IM) (500 μM EDTA, 5 mM HEPES, 0.25 M sucrose, and 10 mg/L bovine serum albumin (BSA)). The brains were minced and rinsed twice with 10 mL IM. The brains were then homogenized (5-6 strokes) in 10 mL IM. A volume (20 mL) of IM was then added and the homogenized preparation was centrifuged 8-10 minutes at 600×g at 4° C. The supernatant was transferred to a new tube. […]
For the enzyme assays, 1.0 mL to 1.5 mL 50 mM sodium phosphate, pH 7.4 containing 5 μM scopoletin and 2 U/mL horseradish peroxidase) were aliquoted in the wells of a Falcon 24-well plate (reaction mixture or RM). […] The preincubation was carried out in the Cytofluor® 4000 (PerSeptive Biosystems) and the baseline fluorescence at λex =360 nm and λem =460 nm was recorded. After 6 min, the reading was interrupted and 150-166 μM tyramine (monoamine oxidase A and monoamine oxidase B substrate) or the corresponding amount of water were added according to the plate layout. The reading was continued for approximately 30 minutes at 3-minute intervals. […]

total serum cholesterol [2] = experiment: Lowering of total serum cholesterol in mice; format: in vivo, mouse; conditions: 300 mg/kg oral, 24 hours before determination; 5 mice; vs control group; decrease of 15% or more considered significant
Description: The activity of N-(2-(5-hydroxyindol-3-yl)ethyl)-3-(6-oxohydropurin-9-yl)propanamide (AIT-202) in lowering total serum cholesterol was tested in mice. Mice (5 mice) were administered N-(2-(5-hydroxyindol-3-yl)ethyl)-3-(6-oxohydropurin-9-yl)propanamide orally at a dosage of 300 mg/kg body weight for 24 hours before cholesterol determination. Total serum cholesterol was determined by standard methods. […] A decrease of 15% or more is considered significant in this test.

obese mice = experiment: Control of obesity in naturally obese mice, 14 days oral; format: in vivo, mouse; conditions: naturally obese mice (>45 g), daily oral gavage, three doses, FIG. 4
Description: The activity of N-(2-(5-hydroxyindol-3-yl)ethyl)-3-(6-oxohydropurin-9-yl)propanamide (AIT-202) in controlling obesity in mice was tested. Mice from the existing animal colony of NeoTherapeutics (Irvine, Calif.) which were naturally obese (greater than 45 grams in weight) were treated with N-(2-(5-hydroxyindol-3-yl)ethyl)-3-(6-oxohydropurin-9-yl)propanamide daily orally by gavage for 14 days. The mice were dosed with one of three doses of N-(2-(5-hydroxyindol-3-yl)ethyl)-3-(6-oxohydropurin-9-yl)propanamide or vehicle (0.5% methylcellulose). Their weight and food consumption were monitored daily.

effect on the catalytic activity of monoamine oxidase A and B (monoamine oxidase A/B; 2-150 μM compound, tyramine substrate, FIGS. 2 and 3): significant effect
IC50 (monoamine oxidase A/B; estimated, mouse brain mitochondrial protein 0.22-0.24 mg/mL, 150-166 μM tyramine, pH 7.4, 37° C.): ~2000 nM
SMILES: O=C(CCn1cnc2c(=O)[nH]cnc21)NCCc1c[nH]c2ccc(O)cc12 [AIT-202, N-(2-(5-hydroxyindol-3-yl)ethyl)-3-(6-oxohydropurin-9-yl)propanamide]
effect on total serum cholesterol (total serum cholesterol [1]): lowers total serum cholesterol
effect on HDL cholesterol (HDL cholesterol): raises HDL cholesterol
decrease of total serum cholesterol (total serum cholesterol [2]): 18%
benefit to treatment in obese mice (obese mice): There appears to be benefit to treatment
